Experimental findings from US9370606B2, “Scaffold-free self-organized 3D synthetic tissue” (Two Cells, Co., Ltd., priority 2003, dated 2016) are described below.

Test [1] deals with synovial membrane-derived synthetic tissue. Put plainly: Collagen content measurement (hydroxyproline) of synovial membrane-derived synthetic tissue. The test is classed as cell-based, pig. As for the experimental part:
In order to determine the collagen concentration, the collagen content was measured. […] The amount of produced collagen is substantially proportional to the time period of culture (FIG. 8). Next, it was determined whether or not collagen (extracellular matrix) is sufficiently secreted after implantation of a synthetic tissue of the present invention. The following protocol was used. Culture periods: 3 days, 7 days, 14 days, and 21 days, Concentrations of ascorbic acid 2-phosphate: 0 mM, 0.1 mM, 1 mM, and 5 mM Under the above-described conditions, a synovial membrane-derived synthetic tissue was produced. 6 N HCl was added to culture medium for the synthetic tissue, followed by hydrolysis at 105° C. for 18 hours. The medium was oxidized with chloramine T. Thereafter, the synthetic tissue was subjected to color development using Ehrlich's Reagent Solution (2 g of p-dimethylamino-benzaldehyde+3 ml of 60% perchloric acid; isopropanol was diluted at 3:13), followed by measurement of absorbance.

In another test the test system is synovial cells. The test is described as follows: HE staining of synthetic tissue produced from synovial cells. The test is classed as cell-based, pig. On the procedure: Synovial cells were collected from a knee joint of a pig (LWD ternary hybrid, 2-3 months old upon removal of cells), followed by treatment with collagenase. The cells were cultured and subcultured in 10% FBS-DMEM medium (FBS was obtained from HyClone, DMEM was obtained from GIBCO). It has been reported that 10th passage synovial cells still have pluripotency. Although cells of 10 or less passages were used in this example, cells of more than 10 passages may be used depending on the application. Autotransplantation was performed for humans, where a sufficient number of cells were used and the cells were cultured for a short period of time so as to reduce the risk of infection or the like. Synovial cells (4.0×10^6) were cultured in 2 ml of 10% FBS-DMEM medium in a 35-mm dish, a 60-mm dish, or 100-mm dish (BD Biosciences, culture dish and multiwell cell culture plate). In this case, ascorbic acid was added. The dishes, the ascorbic acid concentrations, and the cell concentration are described below. Ascorbic acid 2-phosphate: 0 mM, 0.1 mM, 0.5 mM; 1 mM, 2 mM, and 5 mM Medium was exchanged two times per week until the end of a predetermined culture period. At the end of the culture period, a cell sheet was detached from the dish by pipetting circumferentially around the dish using a 100-μl pipetteman. After detachment, the cell sheet was made as flat as possible by lightly shaking the dish. […]

Test [2] deals with synovium-derived synthetic tissue. The test is described as follows: Influence of actin regulatory agents on contraction of a synthetic tissue. The settings on record: dihydrocytochalasin B 3 μM, Y27632 10 μM; after detachment. The class given is cell-based. As for the experimental part: Dihydrocytochalasin B and Y27632 (Yamanouchi Pharmaceutical), which are known to have an actin depolymerizing function, were used to study their influence on the contraction of a synthetic tissue.
A synovium-derived synthetic tissue was produced by monolayer culture. The tissue was detached from a culture dish. The tissue was cultured in medium in the presence of dihydrocytochalasin B (3 μM) and Y27632 (10 μM). The transition of the radius of the tissue is shown every unit culture time in FIG. 40. […] Dihydrocytochalasin B and Y27632 are representative exemplary actin polymerization inhibitors. It will be understood by those skilled in the art that other actin polymerization inhibitors, such as cytochalasin D and the like, have a similar function.

The next test relates to monolayer culture cells. Put plainly: Conditions for detachment during production of a synthetic tissue. The test is classed as cell-based. On the procedure: In this example, it was determined whether or not chemical detachment can be used instead of physical detachment (mechanical detachment (e.g., pipetting, etc.)) during the production of the synthetic tissue of the present invention.
Cell density: 4×10^4 cells/cm^2
Conditions: CO2 5%, air 95%, 37° C.
Medium: DMEM/F12 (FBS 10%) supplemented with 10 ng/ml TGFβ1.
This medium was used to conduct culture under the conditions described in Examples 14 and 15 to produce a synthetic tissue.
Medium: DMEM (GIBCO), FBS (HyClone) 10%, ITS+Premix (insulin, transferrin, selenious acid) (BD Biosciences) 6.25 μg/ml, dexamethasone (Sigma) 10^−7 M, ascorbic acid (WAKO) 50 μg/ml, pyrubic acid (SIGMA) 100 μg/ml.

`O=C1O[C@H]([C@@H](O)CO)C(O)=C1OP(=O)(O)O` [ascorbic acid 2-phosphate]: the “quantities of collagen produced, dependence on concentration” value in test [1] (0, 0.1, 1 and 5 mM, culture 3 to 21 days) is on record as 0 mM<<5 mM<1 mM≦0.1 mM. In test [1] (0.1 mM or more added), the “production of collagen (amount of hydroxyproline)” value was “significantly promoted”. In addition, in test [1] (0.1 mM or more added, any of the culture periods), the “collagene content in the synthetic tissue” value is recorded as “significantly increased”. In the test on synovial cells (0.1 mM or more), the “formation of an extracellular matrix” value is given as “promoted”. In the test with synovial cells (concentration of more than 0.1 mM), the “Eosin staining of the synthetic tissue” value is listed as “more intense”.
Take `C[C@@H](N)[C@H]1CC[C@H](C(=O)Nc2ccncc2)CC1` [Y27632]: the “contraction of the synthetic tissue (radius over culture time)” value in test [2] is reported as “inhibited”.
For the compound “TGF-β: transforming growth factor, 10 ng/ml TGFβ1 in medium”, the “detachment of monolayer culture cells from the culture dish” value in the test on monolayer culture cells (10 ng/ml TGFβ1 in DMEM/F12 (FBS 10%)) is recorded as “more easily detached”. Further, in the test with monolayer culture cells (added in monolayer culture, no physical stimulus), the “effect on culture cells” value is “has the effect of detaching culture cells”.
Take `C=C1[C@@H](C)[C@H]2[C@H](Cc3ccccc3)NC(=O)[C@]23OC(=O)CC[C@H](O)CCC[C@@H](C)C/C=C/[C@H]3[C@@H]1O` [dihydrocytochalasin B, Dihydrocytochalasin B]: the “contraction of the synthetic tissue (radius over culture time)” value in test [2] is recorded as “inhibited”.
